Results from patent publication US20230002736A1, “ENDODERM DIFFERENTIATION FROM PLURIPOTENT STEM CELL LINES” (priority 2019, published 2023).

How the values were obtained:
iPS cells = experiment: Growth of iPS cells in the presence of doxycycline (dose response); format: cell-based, human; settings: FIG. 7B
Protocol: The media conditions to maintain human iPSCs have all been previously described (40). For passaging the cells Accutase (StemCell Technologies, Vancouver, BC) was used for 5 minutes at 37° C. and then stopped with iPSC media containing 10 μM Y-27632 (Selleckchem, Houston, Tex.) (41). The dissociated IPSCs were seeded on new plates with media containing Y-27632, and after 24 hours replaced with media alone. iPSC media was changed daily.
We also did a complete dose-response curve on the growth of iPS cells in the presence of doxycycline up to 30 μg/mL, with toxicity observed beginning at the 10 μg/mL level (FIG. 7B). Beyond effects on iPS cells, we further confirmed the ability of doxycycline to support the induction of iPSCs to endoderm. For this we performed immunohistochemical staining for markers of endoderm, including CXCR4, SOX17, FOXA2, and HNF16 (FIG. 2A and 2B). […] More importantly, the ML1 protocol allowed induction of complete monolayers of endoderm from virtually any iPSC. Compared to many of the other protocols that we tested for poorly differentiating iPS cell lines(6, 8), we could actually differentiate most lines using the ML1 protocol, but only a fraction of them using the other protocols. […]

iPSC lines = format: cell-based
Protocol: Induction of Definitive Endoderm (days 1-7). iPSCs were plated on 6-, 12-, or 96-well Matrigel-coated plates at different densities for differentiation in iPSC media containing 10 μM Y-27632 and 2 μM doxycycline. For example, typical plating density in a single well of a 6-well plate was 500,000 cells or 20,000 cells per well for 96-well plates. The differentiation process consisted of one week of RPMI media supplemented with Gem21 NeuroPlex without insulin at 1× (supplied at 50×, Gemini Bio-Products West Sacramento, Calif., catalog #400-962, or supplemented with Gibco B27 without insulin at 1×), Glutagro at 1× (Corning, Manassas, Va., catalog #25-015-CI, non-essential amino acids at 1× (Gibco, catalog #11-140-050), sodium butyrate (0.5 mM, Sigma Aldrich, catalog #B5887) and recombinant human Activin A (100 ng/mL, Peprotech, Rocky Hill, N.J., catalog #120-14E) for 7 days. On day 1, 2% KnockOut Serum Replacement (KSR; Gibco Catalog #10828028), CHIR-99021 (10 ng/mL, Selleckchem catalog #S2924), PI-103 (10 ng/mL,Selleckchem catalog #S1038), recombinant human BMP4 (10 ng/mL, Peprotech catalog #120-05ET) and FGF2 (20 ng/mL, Peprotech catalog #100-18B) were added to the media. On day 2, 1% KSR, PI-103 (10 ng/mL) and BMP4 (10 ng/mL) and FGF2 (20 ng/mL) and on day 3, 0.2% KSR and PI-103 (10 ng/mL) were added to the media. Doxycycline hyclate (Acros Organics catalog #446061000) was added throughout definitive endoderm induction starting on day 0 (passage day) at various concentrations, as described herein, with a standard concentration being 2 μM. These steps can be performed at normal room oxygen at about 20% or at low oxygen between 4 and 6%.

For `C[C@H]1c2cccc(O)c2C(=O)C2=C(O)[C@]3(O)C(=O)C(C(N)=O)=C(O)[C@@H](N(C)C)[C@@H]3[C@@H](O)[C@@H]21` [doxycycline], the “titration of doxycycline, outcome in words” value (iPS cells) was “an optimal level of doxycycline and a toxic level”, the “concentration at which toxicity begins” value (iPS cells; dose-response up to 30 μg/mL) was 10000 ng/mL and the “concentration giving total cell death” value (iPSC lines; by the third day of induction) was over 10000 ng/mL. For the same compound, the “concentration tolerated by the cells” value (iPSC lines; endoderm induction) was “up to 10 μg/mL”.
